# Assay results published in patent publication EP2930248B1, “METHOD FOR PREDICTING SENSITIVITY OF OSTEOSARCOMA PATIENT TO ANTICANCER AGENT” (National Cancer Center, priority 2014, dated 2015).
# Legend:
# MNNG/HOS = assay: Sensitivity test: cell viability (Cell Counting Kit-8) after anticancer agent, RNA-transfected cells; assay type: cell-based, Human; settings: MTX 72 hours, DOX and CDDP 48 hours
# Description: (§1) Human osteosarcoma cell lines used were MNNG/HOS, MG63 and 143B. The cells were seeded in a 96-well plate at 3 x 10^3 cells/well. After 24 hours, the medium was replaced with fresh medium and miRNA-100 (SEQ ID NO: 1), miRNA-125b (SEQ ID NO: 2) or negative control (nonsense RNA) (microRNA control, Non-target RNA (S10CM0600; COSMO BIO Co., Ltd)) was introduced to the cells using DharmaFECT transfection reagents (Thermo Scientific). At 24 hours after RNA introduction, the medium was replaced with fresh medium. Specific procedures followed the protocol attached to the gene transfer reagents used.
# (§2) Methotrexate (MTX), doxorubicin (DOX) and cisplatin (CDDP) were applied to the cells lines MNNG/HOS, MG63 or 143B to which various RNAs were introduced under following conditions followed by incubation over a certain period. The viability of the cells thereafter was measured with the Cell Counting Kit-8 (Dojindo Laboratories). Specific procedures followed the protocol attached to the kit used.
# (§3) Methotrexate (MTX): applied at a final concentration of 0 to 32 µM and incubated for 72 hours.
# (§4) Doxorubicin (DOX): applied at a concentration of 0 to 1.3 µM and incubated for 48 hours.
# (§5) Cisplatin (CDDP): applied at a final concentration of 0 to 32 µM and incubated for 48 hours.
# (§6) From the results of measurement of the viability of the cells, the 50% inhibitory concentration of cell proliferation (IC50) for each anticancer agent was determined.
# 143B = assay: as above; assay type: cell-based, Human; settings: 143B cells, MTX 72 hours, DOX and CDDP 48 hours
# Description: as §1, §2, §3, §4, §5, §6
# MG63 = assay: as above; assay type: cell-based, Human; settings: MTX 72 hours, DOX and CDDP 48 hours
# Description: as §1, §2, §3, §4, §5, §6
# BAK1 = BAK1 protein expression by western blotting in RNA-transfected MNNG/HOS cells; assay type: cell-based, human; settings: with application of DOX 64 µM, 48 hours, Fig. 8
# Description: as §1, with “A human” for “Human”, “line” for “lines”, “was MNNG/HOS.” for “were MNNG/HOS, MG63 and 143B.”, “and” for “and miRNA-100 (SEQ ID NO: 1),”
# Doxorubicin (DOX) at a final concentration of 0 µM or 64 µM was applied to MNNG/HOS cells to which various RNAs were introduced as above (1) and then the cells were incubated for 48 hours. To the collected cells was added a urea-containing lysis buffer and the mixture was incubated on ice for 30 minutes to lyse the cells. The lysed cells were centrifuged at 15,000 rpm for 30 minutes at 4°C and the supernatant was collected. The protein concentration in the supernatant was quantified by the Bradford assay (Bio-Rad).
# Proteins in the supernatant were separated by electrophoresis using an SDS/polyacrylamide gel and transferred onto a nitrocellulose membrane (Bio-Rad). […] After the membrane was washed with TBS-T, the antigen-antibody complex was detected with the ECL-Prime kit (GE).
# [1] = control (negative control nonsense RNA) introduced
# [2] = Homo sapiens, HOS, control (negative control nonsense RNA) introduced
# [3] = Homo sapiens, HOS, miR-100 introduced
# [4] = Homo sapiens, HOS, miR-125b introduced
# [5] = Homo sapiens, 143B, control (negative control nonsense RNA) introduced
# [6] = Homo sapiens, 143B, miR-100 introduced
# [7] = Homo sapiens, 143B, miR-125b introduced
# [8] = Homo sapiens, MG-63, MG63 cells, control (negative control nonsense RNA) introduced
# [9] = Homo sapiens, MG-63, MG63 cells, miR-100 introduced
# [10] = Homo sapiens, MG-63, MG63 cells, miR-125b introduced
IC50 (MNNG/HOS; [1]) [nM],IC50 (MNNG/HOS; miR-100 introduced) [nM],IC50 (MNNG/HOS; miR-125b introduced) [nM],IC50 (143B; [1]) [nM],IC50 (143B; miR-100 introduced) [nM],IC50 (143B; miR-125b introduced) [nM],"IC50 (MG63; MG63 cells, control (negative control nonsense RNA) introduced) [nM]","IC50 (MG63; MG63 cells, miR-100 introduced) [nM]","IC50 (MG63; MG63 cells, miR-125b introduced) [nM]",IC50 (MNNG/HOS; [2]) [nM],IC50 (MNNG/HOS; [3]) [nM],IC50 (MNNG/HOS; [4]) [nM],IC50 (143B; [5]) [nM],IC50 (143B; [6]) [nM],IC50 (143B; [7]) [nM],IC50 (MG63; [8]) [nM],IC50 (MG63; [9]) [nM],IC50 (MG63; [10]) [nM],SMILES,expression level of BAK1 in NC versus miRNA-125b-introduced cell line (BAK1)
5700,6970,7320,12300,14500,14100,2910,2570,1630,–,–,–,–,–,–,–,–,–,"[NH2][Pt]([NH2])([Cl])[Cl] [CDDP, Cisplatin]",–
–,–,–,–,–,–,–,–,–,180,250,370,64,77,72,65,73,74,"COc1cccc2c1C(=O)c1c(O)c3c(c(O)c1C2=O)C[C@@](O)(C(=O)CO)C[C@@H]3O[C@H]1C[C@H](N)[C@H](O)[C@H](C)O1 [DOX, Doxorubicin]",almost the same
–,–,–,–,–,–,–,–,–,1050,2520,4030,1490,3210,3970,3090,7180,7740,"CN(Cc1cnc2nc(N)nc(N)c2n1)c1ccc(C(=O)N[C@@H](CCC(=O)O)C(=O)O)cc1 [MTX, Methotrexate]",–
